Experiment [1] concerns marijuana variety Lemon Creamsicle. Put plainly: Foliar spray of CJ or MDJ on high-THC marijuana in greenhouse, cannabinoid analysis. To be noted: 7.5 mM foliar spray every 14 days, four treatments. Type of experiment: in vivo, Cannabis spp. The protocol: Applicant's previous experiments investigated the effects of jasmonate-type elicitors MeJA, MDJ, and CJ on hemp (high fiber) and high-CBD, (low-THC) varieties of Cannabis. […] Here, the effects of MDJ and CJ application on a high-THC variety in a controlled environment was investigated. High-THC, low-CBD marijuana variety “Lemon Creamsicle” (LC), was grown in a greenhouse setting. LC was used as a plant model due to its historically consistent metabolite profile in the greenhouse environment, making it a stable, known, and reliable variety.
A four-block plant trial was implemented with a population of N=12 plants and treatment group sizes of n=4. The treatment and control groups were defined as follows: Control=water+0.1% TWEEN®-20 aqueous foliar spray, Treatment 1=[7.5 mM] CJ+0.1% TWEEN®-20 aqueous foliar spray, Treatment 2=[7.5 mM] MDJ+0.1% TWEEN®-20 aqueous foliar spray. A standardized concentration of [7.5 mM] for both CJ and MDJ applications was chosen due to its performance in Applicant's past research. All treatment solutions were prepared the day of the application in equal volumes from pre-measured quantities of the stock materials to ensure consistency, i.e., appropriate volumes of CJ or MDJ were combined with appropriate volumes of TWEEN®-20 for each experimental treatment, stored in a sealed centrifuge tube, and diluted in the appropriate amount of water immediately prior to application. Separate sprayers were used for each treatment and control sprays to avoid cross-contamination.
All plants in the trial were produced as asexual clone stock taken from the same mother plant at the same time to ensure homogeneity. All plants were rooted and grown in accordance with the production practices typical to this greenhouse operator prior to plant selection for the experiment. Due to the layout of the cultivation system, which features immovable hydroponic “pots” that house the plant throughout the entire flowering (i.e., reproductive) phase, all plants included in the experiment were selected from a set section of the greenhouse after final transplant into the hydroponic system and grouped in a complete randomized block design accordingly.
After defining the plants to include in the experiment, which were organized in two (2) rows of six (6) plants side-by-side in the hydroponic system, the experimental blocks were defined as groups of three plants, and a research randomizer tool (randomizer.org) was used to generate a randomized arrangement of plants in each group. Using a blocked design in this setting helped account for the immovable nature of the plants and the slight, if any, environmental differences (like natural sunlight, shading from other plants, and corner/edge effect) that existed in the small experimental area. Blocking the experimental arrangement also allowed for improved statistical analysis and resolution considering the small sample size and close proximity of the experimental plants.
After labelling each plant in the experiment with the appropriate group label (Control, T1 [CJ], or T2 [MDJ]), the plants were allowed to grow normally between treatment applications, which were performed every 14 days for a total of four (4) treatments throughout the flowering cycle, which lasted approximately eight (8) weeks. The first treatment occurred seven (7) days after the onset of the flowering cycle, which was dictated by day-length control. Care was taken with each treatment application to minimize overspray onto non-target neighboring plants, and physical barriers were temporarily installed between plants during treatment sprays to aid in this effort. These barriers were removed following treatment sprays when the foliage was no longer visibly wet from the treatment and/or control foliar sprays. […]

Experiment [2] concerns Pencicillium sclerotigenum. Put plainly: Mold growth on jasmonate-infused plates, mold isolated from sweet potato. It counts as cell-based. To be noted: 1 mM, 5 mM, 10 mM, or 20 mM in plates. How it is done: (§1) MDJ (TCI, CAS No.: 24851-98-7) and CJ were infused into potato dextrose agar (PDA, VWR Cat No.: 90003-494) petri dishes (100×15 mm VWR, Cat No: 25384-094) at concentrations ranging from 1 mM, 4.25 mM, and 10 mM. Each treatment was prepared using a technical grade stock solution of pure chemical (CJ or MDJ) diluted with TWEEN®-20 (VWR, CAS No.: […]). Culturable oyster mushroom and seedling mold served to create fungal mycelial plugs using a sterile 1 mL pipette tip (Eppendorf, Cat No.: 022491458) held upside down. The tips were used to make circle excisions (i.e., fungal plugs) from a mycelial mat grown on PDA with no biochemical infusions. Fungal pugs were then transferred to PDA infused with varying concentrations of CJ or MDJ, and control plates (no CJ or MDJ infusion) to monitor fungal growth at room temperature over time.
(§2) Based on the above results in Cannabis spp., additional fungi from various crops was sampled and tested. Plates comprising various concentrations of MDJ or MJ were prepared as described above.

Another experiment relates to Botrytis spp. Put plainly: Mold growth on jasmonate-infused plates, mold isolated from strawberry. Type of experiment: cell-based. To be noted: 1 mM, 5 mM, 10 mM, or 20 mM in plates. How it is done:
as §1, §2

The text below walks through data of patent US11638427B2, “Methods and compositions for altering secondary metabolites in plants” (Impello Biosciences, Inc, priority 2020, dated 2023).

Regarding `CCCCCC1C(=O)CCC1CC(=O)OC` (stereo not drawn) [MDJ, methyl dihydrojasmonate], in experiment [1], the “CBGA average relative percent increase compared to the Control group” value worked out at 15.91%, the “THCA average relative percent increase compared to the Control group” value is 6.88%, the “Total Cannabinoids average relative percent increase compared to the Control group” value stood at 6.06% and the “Total THC average relative percent increase compared to the Control group” value is 5.92%. Also, the “growth of mold isolated from sweet potato” value in experiment [2] is “effective at preventing the growth”. Also, the “growth of mold isolated from strawberry” value in the experiment with Botrytis spp. is given as “effective at preventing the growth”.
